Counter-ions that a name gives are not always drawn.
System: glutamate, GABA, adenosine, glycine concentrations in cortex, hippocampus, brainstem
Assay: Determination of neurotransmitters in brain structures (LC-MS/MS, HPLC-FLD)
Assay type: in vivo, mice
Procedure: Mice were administered with SSR504734 or saline acutely or repeatedly for 14 days and subjected to maximal electroshock seizures 60 min after treatment. Immediately following seizure induction, the animals were decapitated. Brains were removed from the skull and washed with ice-cold 0.9% NaCl. Cortex, hippocampus, and brainstem were isolated by microdissection and collected into Eppendorf tubes. Samples were frozen in liquid nitrogen and kept at −80 °C until the day of analysis.
Adenosine, GABA, and glutamate concentrations in mouse cortex, brainstem, and hippocampus were determined using an LC-MS/MS method. Stock solutions of GABA, adenosine, glutamate, and their internal standards (ISs), i.e., adenosine-13C5, GABA-d6, and glutamate-d5 (Toronto Research Chemicals Inc., Canada), were prepared using methanol for GABA and its IS and deionized water for adenosine, glutamate, and their ISs and stored at 4 °C. The stock solutions of GABA, adenosine, and glutamate were then appropriately diluted with acetonitrile/water 1:1 (v/v) solution to achieve various concentration levels required for the experiments. Brain tissue samples were homogenized using a Bead Ruptor Elite, bead mill homogenizer (Omni International, USA) with 90 μL of deionized water per 10 mg of tissue. The resulting homogenates were further diluted at 1:10 to 1:100 (v/v) ratios (depending on the expected analyte concentration) with acetonitrile/water 1:1 (v/v) solution. […] The supernatants were then placed in autosampler vials.
Analyte separation was performed on an Exion LC AC system (Sciex, USA) coupled with a QTRAP 4500 triple quadrupole MS instrument (Sciex, USA). A 0.2 to 2 μL aliquot of sample was injected via an autosampler maintained at 15 °C into an XBridge HILIC (Waters, Ireland) analytical column (2.1 × 150 mm, 3.5 μm) with the column oven set at 25 °C.
MS detection employed electrospray ionization (ESI) in positive ion mode. According to the results of flow-injection analysis, curtain gas was set at 30 psi, ion spray voltage at 5500 V, and the source temperature at 450 °C, with ion spray gases 1 and 2 at 50 and 40 psi, respectively.
Data acquisition and processing were conducted with Analyst version 1.7 software. The calibration curves were constructed by plotting the ratio of the peak areas of the target analytes to those of their respective ISs against the concentrations of the analytes. These curves were derived using a weighted linear regression analysis method (1/x). Due to the availability of stable isotope-labeled standards and the high endogenous concentrations of adenosine, glutamate, and GABA in the brain tissue, the calibrators were prepared in water.
Glycine concentrations in brain structures were analyzed by using high-performance liquid chromatography with fluorescence detection (HPLC-FLD). A stock solution of glycine (20 mg/mL) was prepared in water and diluted with the same solvent to prepare working standard solutions at the concentration range of 0.2–20 μg/mL. The homogenates were obtained as described above, and they were centrifuged before analysis for 5 min at 10,000 rpm (Eppendorf miniSpin centrifuge). To prepare samples for analysis, 2 μL (for brainstem) or 5 μL (for the remaining structures) of homogenate supernatants was transferred to Eppendorf tubes and diluted with water to 20 μL. […] The reaction mixture was vortexed for 15 s, spinned down to make sure that all the sample is at the bottom of the tube, and incubated for 3 min at room temperature in darkness. The aliquots of 5 μL were injected into the column. […] The EZChrom Elite Client/Server v. 3.2 software was used for data collection and analysis. […] The mobile phase consisted of methanol (solvent A) and 0.05 M phosphate buffer adjusted to pH = 4.5 with phosphoric acid 30% (solvent B) and run in a gradient mode at a flow rate of 1 mL/min.

[1] = acute treatment i.p., nonstimulated (sham) mice

**Q.** What does the source list for `O=C(NC(c1ccccc1)C1CCCCN1)c1cccc(C(F)(F)F)c1Cl` [SSR504734, 2-chloro-N-[(S)-phenyl[(2S)-piperidin-2-yl]methyl]-3-trifluoromethyl benzamide monohydrochloride]?
**A.** glutamate, GABA, adenosine, glycine concentrations in brain structures (14-day treatment, nonstimulated (sham) and MES-stimulated mice): No alterations; GABA and glycine concentrations in any of the studied brain regions (acute treatment i.p.): did not alter; adenosine concentrations in cortex and hippocampus (acute treatment i.p.): no changes; glutamate concentration in cortex and hippocampus (acute treatment i.p.): No alterations; glutamate concentration in the brainstem (acute treatment i.p., mice subjected to the MES test): no statistically significant changes; fold decrease of adenosine concentration in the brainstem [1]: ~2 fold; glutamate concentration in the brainstem [1]: significant decrease

— article PMC11926788, “Effect of SSR504734, a Selective Glycine Transporter Type 1 Inhibitor, on Seizure Thresholds, Neurotransmitter Levels, and Inflammatory Markers in Mice” (ACS Chemical Neuroscience, 2025)
